# Measured values published in patent US20160272937A1, “METHODS OF GENERATING INTERMEDIATE MESODERM CELLS FROM HUMAN PLURIPOTENT STEM CELLS” (THE BRIGHAM AND WOMEN'S HOSPITAL, INC., priority 2013, published 2016).
# Tested on: human pluripotent stem cells (hPSCs)
# Experiment: Mesendoderm induction: BRACHYURY immunofluorescence in hPSCs
# Assay type: cell-based
# Method: For differentiation experiments, hESCs or hiPSCs can be grown on Geltrex, washed once with PBS and dissociated into single cells with Accutase ([…] Technologies). Cells are plated at a density of 4×10^4 cells/cm^2 onto Geltrex-coated plates in mTeSR1 medium supplemented with the ROCK inhibitor Y27632 10 μM (Stemgent). Cells are fed daily with mTeSR1 without Y27632 for 2-3 days until they reached 50% confluency. Mesendoderm differentiation-the media is changed to Advanced RPMI (A-RPMI, Invitrogen) supplemented with 1×L-glutamax and 1× penicillin/streptomycin and either CHIR99021 (CHIR, Stemgent), human Wnt3a (R&D systems), and/or human activin A (R&D systems) at the doses described. Definitive endoderm differentiation-cells are treated with […] for 24 hours, then […]+100 ng/mL of activin A for 2-3 days. Hepatic differentiation-cells at the definitive endoderm stage are treated with […]27 supplement (Invitrogen)+20 ng/mL BMP-4 (R&D systems)+10 ng/mL FGF2 (Invitrogen) for 5 days, then […]27+10 ng/mL HGF for 5 days, then HCM Hepatocyte Culture Medium (Lonza) supplemented with 20 ng/mL Oncostatin M and 10 ng/mL HGF (Peprotech) for 5 days. Pancreatic differentiation-cells at the definitive endoderm stage are treated with DMEM/F12+2% FBS (Hyclone)+50 ng/mL FGF7 (R&D systems) for 2 days, then high-glucose DMEM (Mediatech)+1% B27+2 μM retinoic acid (Sigma)+0.25 μM KAAD cyclopamine (EMD Millipore)+100 ng/mL recombinant human Noggin (R&D systems) for 4 days, then high-glucose DMEM+1% B27+100 ng/mL Noggin+300 nM indolactam V (Stemgent)+1 μM ALK5 inhibitor II (Axxora) for 4 days. Anterior foregut endoderm differentiation-cells at the definitive endoderm stage are treated with DMEM/F12+1×L-glu+1×B27+200 ng/mL Noggin+10 μM SB431542 (Stemgent) for 3 days. […] Immunofluorescence is visualized using an inverted fluorescence microscope (Nikon Eclipse Ti, Tokyo, Japan). Quantification is performed by counting a minimum of five random fields at 10× magnification. […]
smiles,measurement,setting,value
Cc1c[nH]c(-c2cnc(NCCNc3ccc(C#N)cn3)nc2-c2ccc(Cl)cc2Cl)n1 [CHIR99021],cells expressing BRACHY,"5 μM, 24 hours",98.7±1.3%
same,efficiency of BRACHYURY+MIXL1+ mesendoderm differentiation,summary statement,~100%
